Test results published in US8153142B2, “Skin treatment composition” (Shiseido Co., Ltd., priority 2001, dated 2012).

Columns and labels:
[1] = test system: rough skin on cheek; assay: Evaluation No.(4): Rough Skin Improving Effect Test; assay type: in vivo, human; conditions: compound 5% by weight in basic composition A
Procedure: (v) Evaluation No.(4): Rough Skin Improving Effect Test A rough skin improving effect test was performed by using 10 panelists having rough skin on cheek. According to a test schedule, different skin lotions were applied on left and right cheeks for 1 week, and the effect was determined on the next day after the last day of the test period. The evaluation criteria is as follows: • {circumflex over (◯)}: Not less than 8 panelists recognized that the rough skin was improved. • ◯: Not less than 6 and less than 8 panelists recognized that the rough skin was improved. • Δ: Not less than 3 and less than 6 panelists recognized that the rough skin was improved. • X: Less than 3 panelists recognized that the rough skin was improved.

[2] = test system: human skin; assay: Evaluation No.(3): Moisturizing Effect Feeling; assay type: in vivo; conditions: compound 5% by weight in basic composition A
Procedure: (iv) Evaluation No.(3): Moisturizing Effect Feeling Practical test on the presence or absence of the moisturizing effect feeling for 120 minutes after use was performed by using 10 special panelists. The evaluation criteria is as follows: • {circumflex over (◯)}: Not less than 8 special panelists recognized that there was the moisturizing effect feeling. • ◯: Not less than 6 and less than 8 special panelists recognized that there was the moisturizing effect feeling. • Δ: Not less than 3 and less than 6 special panelists recognized that there was the moisturizing effect feeling. • X: Less than 3 special panelists recognized that there was the moisturizing effect feeling.

[3] = test system: human skin (medial parts of brachiums); assay: Evaluation No.(5): Skin Stimulation Test A (occluding patch); assay type: in vivo; conditions: compound 5% by weight in basic composition A
Procedure: (iv) Evaluation No.(5): Skin Stimulation Test A
Occluding patch was performed on medial parts of brachiums of 10 panelists for 24 hours and, thereafter, an average was calculated based on the following criteria: • 0: No abnormality is perceived. • 1: Slight redness is perceived. • 2: Redness is perceived. • 3: Redness and papula are perceived.
(§1) The evaluation criteria of skin stimulation test A is as follows: • {circumflex over (◯)}: The average of 10 panelists is not less than 0 and less than 0.1 • ◯: The average of 10 panelists is not less than 0.1 and less than 0.15 • Δ: The average of 10 panelists is not less than 0.15 and less than 0.2 • X: The average of 10 panelists is not less than 0.2

[4] = test system: human skin (medial parts of brachiums); assay: Evaluation No.(7): Skin Stimulation Test B (smart feeling); assay type: in vivo
Procedure: (viii) Evaluation No.(7): Skin Stimulation Test B
A smart feeling when a sample applied on medial parts of brachiums of 10 panelists was graded based on the following criteria and, thereafter, an average was calculated: • 0: No smart feeling is perceived. • 1: Slight smart feeling or redness is perceived. • 2: Smart feeling or redness is perceived. • 3: Smart feeling and redness are perceived.
as §1, with “B” for “A”

[5] = test system: human skin; assay: Evaluation No.(8): Refreshing Effect Durability; assay type: in vivo; conditions: for Refreshing feeling (8): basic composition B
Procedure: (ix) Evaluation No.(8): Refreshing Effect Durability A presence or absence of refreshing feeling for 120 minutes after use was evaluated by 10 special panelists. The evaluation criteria is as follows: • {circumflex over (◯)}: Not less than 8 special panelists recognized that there was refreshing feeling durability. • ◯: Not less than 6 and less than 8 special panelists recognized that there was refreshing feeling durability. • Δ: Not less than 3 and less than 6 special panelists recognized that there was refreshing feeling durability. • X: Less than 3 special panelists recognized that there was refreshing feeling durability.

[6] = test system: human skin (forearms of 10 panelists); assay: Conductance measuring test; assay type: in vivo; conditions: for Conductance 30 min-after / Conductance 60 min-after / Conductance 120 min-after: 10% aqueous solution; for Conductance 30 min-after: 30 minutes after application; for Conductance 60 min-after: 60 minutes after application; for Conductance 120 min-after: 120 minutes after application
Procedure: (i) Conductance Measuring Test
Using forearms of 10 panelists, the skin conductance was measured before application and for 30 minutes, 60 minutes and 120 minutes after application, and the moisturizing effect was evaluated from a change rate thereof. The change rate of the skin conductance is calculated by the following equation (II): Conductance change rate=[…].
The change rate can be used for study of the influences on a water-absorbing property and a moisture retaining ability of a keratin layer. When this change rate is small, there is increase in the moisture in a keratin layer, thus, it can be evaluated that the moisturizing effect is high.
The evaluation criteria of conductance measuring test is as follows: • {circumflex over (◯)}: The average of conductance change rate of 10 panelists is not less than 0 and less than 0.1 • ◯: The average of conductance change rate of 10 panelists is not less than 0.1 and less than 0.2 • Δ: The average of conductance change rate of 10 panelists is not less than 0.2 and less than 0.5 • X: The average of conductance change rate of 10 panelists is not less than 0.5

| Molecule | Rough skin Evol. No. (4) ([1]; Table 2, applied 1 week) | Evaluation (4) rough skin improving effect ([1]; Table 4) | Moisturizing Evol. No. (3) ([2]; Table 2, 120 minutes after use) | Evaluation (3) moisturizing effect feeling ([2]; Table 4) | Stimulation A Evol. No. (5) ([3]; Table 2, occluding patch 24 hours) | Evaluation (5) skin stimulation A ([3]; Table 4) | Stimulation B (7) ([4]; Table 12, basic composition B, tested compound 5.0 wt %) | Stimulation B (7) ([4]; Table 13, Y/X study, basic composition B) | Stimulation B (7) ([4]; Table 14, basic composition B, tested compound 5.0 wt %) | Refreshing feeling (8) ([5]; Table 12, tested compound 5.0 wt %) | Refreshing feeling (8) ([5]; Table 13, Y/X study) | Refreshing feeling (8) ([5]; Table 14, tested compound 5.0 wt %) | Conductance 30 min-after [6] | Conductance 60 min-after [6] | Conductance 120 min-after [6] | Evaluation in conductance measuring (120 min after) ([6]; Table 7, 5% alone in ion-exchange water 95%) | Stimulation B (7) ([4]; Table 11, tested compound 5.0 wt % in basic composition B (L-menthol 0.1)) | Refreshing feeling durability (8) ([5]; Table 11, tested compound 5.0 wt % in basic composition B (L-menthol 0.1), 120 minutes after use) |
| --- | --- | --- | --- | --- | --- | --- | --- | --- | --- | --- | --- | --- | --- | --- | --- | --- | --- | --- |
| Polyoxyethylene (10) polyoxypropylene (10) dimethyl ether [Compound 2] | ⊚ (Not less than 8 panelists recognized that the rough skin was improved.) | ⊚ (Not less than 8 panelists recognized that the rough skin was improved.) | ⊚ (Not less than 8 special panelists recognized that there was the moisturizing effect feeling.) | ⊚ (Not less than 8 special panelists recognized that there was the moisturizing effect feeling.) | ⊚ (The average of 10 panelists is not less than 0 and less than 0.1) | ⊚ (The average of 10 panelists is not less than 0 and less than 0.1) | ⊚ (The average of 10 panelists is not less than 0 and less than 0.1) | ⊚ (The average of 10 panelists is not less than 0 and less than 0.1) | ⊚ (The average of 10 panelists is not less than 0 and less than 0.1) | ⊚ (Not less than 8 special panelists recognized that there was refreshing feeling durability.) | ⊚ (Not less than 8 special panelists recognized that there was refreshing feeling durability.) | ⊚ (Not less than 8 special panelists recognized that there was refreshing feeling durability.) | – | – | – | – | – | – |
| CC(O)CCO (stereo not drawn) [1,3-Butylene glycol] | – | – | – | – | – | – | – | – | – | – | – | – | Δ (The average of conductance change rate of 10 panelists is not less than 0.2 and less than 0.5) | Δ (The average of conductance change rate of 10 panelists is not less than 0.2 and less than 0.5) | Δ (The average of conductance change rate of 10 panelists is not less than 0.2 and less than 0.5) | – | – | – |
| OCC(O)CO [Glycerin] | – | – | – | – | – | – | – | – | – | – | – | – | ⊚ (The average of conductance change rate of 10 panelists is not less than 0 and less than 0.1) | ◯ (The average of conductance change rate of 10 panelists is not less than 0.1 and less than 0.2) | ◯ (The average of conductance change rate of 10 panelists is not less than 0.1 and less than 0.2) | Δ (The average of conductance change rate of 10 panelists is not less than 0.2 and less than 0.5) | Δ (The average of 10 panelists is not less than 0.15 and less than 0.2) | X (Less than 3 special panelists recognized that there was refreshing feeling durability.) |
